Data published in PubChem BioAssay (NCI).
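Test compounds were applied to cells in 96-well plates for 48 hours at 5 doses. TGI marks complete inhibition of growth.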

Tests used:
Assay in all cases: growth of human tumour cells (NCI), 48 h
[1] = test system: 786-0 renal
[2] = test system: A498 renal
[3] = test system: A549 NSCLC
[4] = test system: ACHN renal
[5] = test system: CAKI-1 renal
[6] = test system: CCRF-CEM leukemia
[7] = test system: COLO 205 colon
[8] = test system: DMS 114 small cell lung
[9] = test system: DMS 273 small cell lung
[10] = test system: EKVX NSCLC
[11] = test system: HCC-2998 colon
[12] = test system: HCT-116 colon
[13] = test system: HCT-15 colon
[14] = test system: HL-60(TB) leukemia
[15] = test system: HOP-62 NSCLC
[16] = test system: HOP-92 NSCLC
[17] = test system: HT29 colon
[18] = test system: IGROV1 ovarian
[19] = test system: K-562 leukemia
[20] = test system: KM12 colon
[21] = test system: KM20L2 colon
[22] = test system: LOX IMVI melanoma
[23] = test system: M14 melanoma
[24] = test system: M19-MEL melanoma
[25] = test system: MALME-3M melanoma
[26] = test system: MOLT-4 leukemia
[27] = test system: NCI-H226 lung
[28] = test system: NCI-H23 lung
[29] = test system: NCI-H460 lung
[30] = test system: NCI-H522 lung
[31] = test system: OVCAR-3 ovarian
[32] = test system: OVCAR-4 ovarian
[33] = test system: OVCAR-5 ovarian
[34] = test system: OVCAR-8 ovarian
[35] = test system: RPMI-8226 leukemia
[36] = test system: SF-268 CNS
[37] = test system: SF-295 CNS
[38] = test system: SF-539 CNS
[39] = test system: SK-MEL-2 melanoma
[40] = test system: SK-MEL-28 melanoma
[41] = test system: SK-MEL-5 melanoma
[42] = test system: SK-OV-3 ovarian
[43] = test system: SN12C renal
[44] = test system: SNB-19 CNS
[45] = test system: SNB-78 CNS
[46] = test system: SR leukemia
[47] = test system: SW-620 colon
[48] = test system: U251 CNS
[49] = test system: UACC-257 melanoma
[50] = test system: UACC-62 melanoma
[51] = test system: UO-31 renal
[52] = test system: XF 498 CNS
[53] = test system: DLD-1 colon
[54] = test system: LXFL 529 NSCLC
[55] = test system: RXF 393 renal
[56] = test system: SNB-75 CNS
[57] = test system: TK-10 renal
[58] = test system: HOP-18 NSCLC

## COc1ccccc1/C=C(\C#N)C(=O)c1ccccc1
[1]
  TGI: > 100 µM
[2]
  TGI: > 100 µM
[3]
  TGI: > 100 µM
[4]
  TGI: > 100 µM
[5]
  TGI: > 100 µM
[6]
  TGI: > 100 µM
[7]
  TGI: > 100 µM
[8]
  TGI: > 100 µM
[9]
  TGI: > 100 µM
[10]
  TGI: > 100 µM
[11]
  TGI: > 100 µM
[12]
  TGI: > 100 µM
[13]
  TGI: > 100 µM
[14]
  TGI: > 100 µM
[15]
  TGI: > 100 µM
[16]
  TGI: > 100 µM
[17]
  TGI: > 100 µM
[18]
  TGI: > 100 µM
[19]
  TGI: > 100 µM
[20]
  TGI: > 100 µM
[21]
  TGI: > 100 µM
[22]
  TGI: > 100 µM
[23]
  TGI: > 100 µM
[24]
  TGI: > 100 µM
[25]
  TGI: > 100 µM
[26]
  TGI: > 100 µM
[27]
  TGI: > 100 µM
[28]
  TGI: > 100 µM
[29]
  TGI: > 100 µM
[30]
  TGI: > 100 µM
[31]
  TGI: > 100 µM
[32]
  TGI: > 100 µM
[33]
  TGI: > 100 µM
[34]
  TGI: > 100 µM
[35]
  TGI: > 100 µM
[36]
  TGI: > 100 µM
[37]
  TGI: > 100 µM
[38]
  TGI: > 100 µM
[39]
  TGI: > 100 µM
[40]
  TGI: > 100 µM
[41]
  TGI: > 100 µM
[42]
  TGI: > 100 µM
[43]
  TGI: > 100 µM
[44]
  TGI: > 100 µM
[45]
  TGI: > 100 µM
[46]
  TGI: > 100 µM
[47]
  TGI: > 100 µM
[48]
  TGI: > 100 µM
[49]
  TGI: > 100 µM
[50]
  TGI: > 100 µM
[51]
  TGI: > 100 µM
[52]
  TGI: > 100 µM

## N#CCCN(c1ccc(/C=C2\N=C(Cc3ccccc3)OC2=O)cc1)S(=O)(=O)c1ccccc1
[1]
  TGI: > 100 µM
[2]
  TGI: > 100 µM
[3]
  TGI: > 100 µM
[4]
  TGI: > 100 µM
[5]
  TGI: > 100 µM
[6]
  TGI: > 100 µM
[7]
  TGI: > 100 µM
[53]
  TGI: > 100 µM
[8]
  TGI: > 100 µM
[9]
  TGI: > 100 µM
[10]
  TGI: > 100 µM
[11]
  TGI: > 100 µM
[12]
  TGI: > 100 µM
[13]
  TGI: > 100 µM
[14]
  TGI: > 100 µM
[15]
  TGI: > 100 µM
[17]
  TGI: > 100 µM
[18]
  TGI: > 100 µM
[19]
  TGI: > 100 µM
[20]
  TGI: > 100 µM
[21]
  TGI: > 100 µM
[22]
  TGI: > 100 µM
[54]
  TGI: > 100 µM
[23]
  TGI: > 100 µM
[25]
  TGI: > 100 µM
[26]
  TGI: > 100 µM
[27]
  TGI: > 100 µM
[28]
  TGI: > 100 µM
[29]
  TGI: > 100 µM
[30]
  TGI: > 100 µM
[31]
  TGI: > 100 µM
[33]
  TGI: > 100 µM
[34]
  TGI: > 100 µM
[35]
  TGI: > 100 µM
[55]
  TGI: > 100 µM
[36]
  TGI: > 100 µM
[37]
  TGI: > 100 µM
[38]
  TGI: > 100 µM
[39]
  TGI: > 100 µM
[40]
  TGI: > 100 µM
[41]
  TGI: > 100 µM
[42]
  TGI: > 100 µM
[43]
  TGI: > 100 µM
[44]
  TGI: > 100 µM
[56]
  TGI: > 100 µM
[45]
  TGI: > 100 µM
[47]
  TGI: > 100 µM
[57]
  TGI: > 100 µM
[48]
  TGI: > 100 µM
[49]
  TGI: > 100 µM
[50]
  TGI: > 100 µM
[51]
  TGI: > 100 µM
[52]
  TGI: > 100 µM

## COc1ccc2nc3cc(Cl)ccc3c(NCCC[N+](C)(C)CCCCCCCCCCCCCCCC[N+](C)(C)CCCNc3c4ccc(Cl)cc4nc4ccc(OC)cc34)c2c1
[1]
  TGI: > 100 µM
[2]
  TGI: > 100 µM
[3]
  TGI: > 100 µM
[4]
  TGI: > 100 µM
[5]
  TGI: > 100 µM
[53]
  TGI: > 100 µM
[10]
  TGI: 9.97 µM
[13]
  TGI: > 100 µM
[58]
  TGI: 14 µM
[21]
  TGI: > 100 µM
[54]
  TGI: 3.25 µM
[27]
  TGI: > 100 µM
[30]
  TGI: 8 µM
[31]
  TGI: > 100 µM
[33]
  TGI: 14.2 µM
[34]
  TGI: > 100 µM
[55]
  TGI: > 100 µM
[37]
  TGI: > 100 µM
[43]
  TGI: > 100 µM
[57]
  TGI: 25.3 µM

## CCOC(=O)N1C2C=C(C)C(ON2C(=O)c2ccccc2)C2C(C)C(=O)N21 (stereo not drawn)
[1]
  TGI: > 100 µM
[2]
  TGI: > 100 µM
[3]
  TGI: > 100 µM
[4]
  TGI: > 100 µM
[6]
  TGI: > 100 µM
[7]
  TGI: > 100 µM
[53]
  TGI: > 100 µM
[8]
  TGI: > 100 µM
[9]
  TGI: > 100 µM
[10]
  TGI: > 100 µM
[11]
  TGI: > 100 µM
[12]
  TGI: > 100 µM
[13]
  TGI: > 100 µM
[14]
  TGI: > 100 µM
[58]
  TGI: > 100 µM
[15]
  TGI: > 100 µM
[16]
  TGI: > 100 µM
[17]
  TGI: > 100 µM
[18]
  TGI: > 100 µM
[19]
  TGI: > 100 µM
[20]
  TGI: > 100 µM
[21]
  TGI: > 100 µM
[22]
  TGI: > 100 µM
[54]
  TGI: > 100 µM
[23]
  TGI: > 100 µM
[24]
  TGI: > 100 µM
[25]
  TGI: > 100 µM
[26]
  TGI: > 100 µM
[27]
  TGI: > 100 µM
[28]
  TGI: > 100 µM
[29]
  TGI: > 100 µM
[31]
  TGI: > 100 µM
[32]
  TGI: > 100 µM
[33]
  TGI: > 100 µM
[34]
  TGI: > 100 µM
[35]
  TGI: > 100 µM
[55]
  TGI: > 100 µM
[36]
  TGI: > 100 µM
[37]
  TGI: > 100 µM
[38]
  TGI: > 100 µM
[39]
  TGI: > 100 µM
[40]
  TGI: > 100 µM
[41]
  TGI: > 100 µM
[42]
  TGI: > 100 µM
[43]
  TGI: > 100 µM
[44]
  TGI: > 100 µM
[56]
  TGI: > 100 µM
[45]
  TGI: > 100 µM
[46]
  TGI: > 100 µM
[47]
  TGI: > 100 µM
[57]
  TGI: > 100 µM
[48]
  TGI: > 100 µM
[49]
  TGI: > 100 µM
[50]
  TGI: > 100 µM
[51]
  TGI: > 100 µM
[52]
  TGI: > 100 µM

## Cc1ccc(N=NC2S/C(=C(\C#N)c3nc4ccccc4[nH]3)N(c3ccccc3)C2=O)cc1 (stereo not drawn)
[1]
  TGI: 71.9 µM
[2]
  TGI: > 100 µM
[3]
  TGI: > 100 µM
[4]
  TGI: > 100 µM
[5]
  TGI: > 100 µM
[6]
  TGI: > 100 µM
[7]
  TGI: > 100 µM
[53]
  TGI: > 100 µM
[8]
  TGI: > 100 µM
[9]
  TGI: > 100 µM
[10]
  TGI: > 100 µM
[12]
  TGI: > 100 µM
[13]
  TGI: > 100 µM
[14]
  TGI: > 100 µM
[15]
  TGI: 81.1 µM
[16]
  TGI: > 100 µM
[17]
  TGI: > 100 µM
[18]
  TGI: > 100 µM
[19]
  TGI: > 100 µM
[21]
  TGI: > 100 µM
[22]
  TGI: > 100 µM
[54]
  TGI: > 100 µM
[23]
  TGI: > 100 µM
[24]
  TGI: > 100 µM
[25]
  TGI: > 100 µM
[27]
  TGI: > 100 µM
[28]
  TGI: > 100 µM
[29]
  TGI: > 100 µM
[30]
  TGI: > 100 µM
[31]
  TGI: > 100 µM
[32]
  TGI: > 100 µM
[33]
  TGI: > 100 µM
[34]
  TGI: > 100 µM
[55]
  TGI: 81.5 µM
[36]
  TGI: > 100 µM
[37]
  TGI: > 100 µM
[38]
  TGI: > 100 µM
[39]
  TGI: > 100 µM
[40]
  TGI: > 100 µM
[41]
  TGI: > 100 µM
[42]
  TGI: > 100 µM
[43]
  TGI: > 100 µM
[44]
  TGI: > 100 µM
[56]
  TGI: 82.5 µM
[45]
  TGI: > 100 µM
[47]
  TGI: > 100 µM
[57]
  TGI: > 100 µM
[48]
  TGI: > 100 µM
[49]
  TGI: > 100 µM
[50]
  TGI: > 100 µM
[51]
  TGI: > 100 µM
[52]
  TGI: > 100 µM
